Laboratory results from article PMC11283679 (Gastroenterology, 2023).
Ends that are not written are not given here. C(BODIPY) = not defined here

Test system: NHE3
Type: cell-based, human
Details: for activity: read-out: Stimulation of NHE3 activity (%)

Row | Substance | EC50 [nM] | activity [%] | Stimulation of NHE3 activity (%)
1 | N3SP-1Δ5: N3SP-1 with truncation of 5 N-terminal aa (TPRPSTVEASVSYLLRESASAVCLDMQSLEQRR-{C(BODIPY)}; reading uncertain; UniProt P26432 573-605, looked up, fragment) | 154 | 39 | –
2 | N3SP-1Δ6: N3SP-1 with truncation of 6 N-terminal aa (PRPSTVEASVSYLLRESASAVCLDMQSLEQRR-{C(BODIPY)}; reading uncertain; UniProt P26432 574-605, looked up, fragment) | 151 | 40 | –
3 | N3SP-1Δ9: N3SP-1 with truncation of 9 N-terminal aa (STVEASVSYLLRESASAVCLDMQSLEQRR-{C(BODIPY)}; reading uncertain; UniProt P26432 577-605, looked up, fragment) | – | – | No
4 | N3SP-1Δ18: N3SP-1 with truncation of 18 N-terminal aa (LLRESASAVCLDMQSLEQRR-{C(BODIPY)}; reading uncertain; UniProt P26432 586-605, looked up, fragment) | – | – | No
5 | N3SP-1Δ8: N3SP-1 with truncation of 8 N-terminal aa (PSTVEASVSYLLRESASAVCLDMQSLEQRR-{C(BODIPY)}; reading uncertain; UniProt P26432 576-605, looked up, fragment) | – | 9 | –
